# From ChEMBL document CHEMBL1201862, “PubChem BioAssay data set” (2004)
# Active and inactive are the calls of the source.
# Columns and labels:
# Cytochrome P450 2D6 = Cytochrome P450 2D6 (Homo sapiens, UniProt P10635);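 further: CYP2D6 member of a cytochrome P450 panel assay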
# Protein RecA = target: T1, Protein RecA (Mycobacterium tuberculosis, UniProt P9WHJ3); assay: Fluorescence Cell-Free Homogeneous Dose Retest to Identify Inhibitors of RecA-Intein Splicing Activity. [Related pubchem assays (depositor defined):AID2097, AID2223, AID489010, AID492950]; assay type: functional
# T1 sequence (P9WHJ3 whole entry): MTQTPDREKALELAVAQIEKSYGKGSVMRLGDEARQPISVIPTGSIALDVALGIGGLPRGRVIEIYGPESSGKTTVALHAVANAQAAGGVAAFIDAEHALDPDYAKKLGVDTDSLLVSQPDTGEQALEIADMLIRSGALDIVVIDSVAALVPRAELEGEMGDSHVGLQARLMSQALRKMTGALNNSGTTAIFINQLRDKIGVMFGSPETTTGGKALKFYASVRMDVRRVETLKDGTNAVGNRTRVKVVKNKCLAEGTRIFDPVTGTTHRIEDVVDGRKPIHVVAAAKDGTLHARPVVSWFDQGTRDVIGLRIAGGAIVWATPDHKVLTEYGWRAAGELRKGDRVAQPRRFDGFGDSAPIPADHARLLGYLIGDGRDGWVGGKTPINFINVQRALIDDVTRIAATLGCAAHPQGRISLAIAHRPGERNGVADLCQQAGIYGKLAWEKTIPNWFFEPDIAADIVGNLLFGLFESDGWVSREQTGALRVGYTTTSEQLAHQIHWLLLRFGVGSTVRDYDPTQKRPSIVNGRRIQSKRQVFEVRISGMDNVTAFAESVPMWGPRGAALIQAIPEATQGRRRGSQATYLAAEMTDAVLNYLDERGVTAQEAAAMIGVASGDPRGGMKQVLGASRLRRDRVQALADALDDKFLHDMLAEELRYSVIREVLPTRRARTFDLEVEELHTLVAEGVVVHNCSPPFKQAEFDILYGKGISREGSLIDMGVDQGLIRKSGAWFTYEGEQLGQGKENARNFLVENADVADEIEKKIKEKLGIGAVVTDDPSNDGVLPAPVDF
# [1] = target: T2, Replicative DNA helicase DnaB (Mycobacterium tuberculosis, UniProt P9WMR3); assay: DnaB intein splicing inhibitors, dose response, biochemical, cell-free fluorescence (AID 449749); assay type: functional
# T2 sequence (P9WMR3 whole entry): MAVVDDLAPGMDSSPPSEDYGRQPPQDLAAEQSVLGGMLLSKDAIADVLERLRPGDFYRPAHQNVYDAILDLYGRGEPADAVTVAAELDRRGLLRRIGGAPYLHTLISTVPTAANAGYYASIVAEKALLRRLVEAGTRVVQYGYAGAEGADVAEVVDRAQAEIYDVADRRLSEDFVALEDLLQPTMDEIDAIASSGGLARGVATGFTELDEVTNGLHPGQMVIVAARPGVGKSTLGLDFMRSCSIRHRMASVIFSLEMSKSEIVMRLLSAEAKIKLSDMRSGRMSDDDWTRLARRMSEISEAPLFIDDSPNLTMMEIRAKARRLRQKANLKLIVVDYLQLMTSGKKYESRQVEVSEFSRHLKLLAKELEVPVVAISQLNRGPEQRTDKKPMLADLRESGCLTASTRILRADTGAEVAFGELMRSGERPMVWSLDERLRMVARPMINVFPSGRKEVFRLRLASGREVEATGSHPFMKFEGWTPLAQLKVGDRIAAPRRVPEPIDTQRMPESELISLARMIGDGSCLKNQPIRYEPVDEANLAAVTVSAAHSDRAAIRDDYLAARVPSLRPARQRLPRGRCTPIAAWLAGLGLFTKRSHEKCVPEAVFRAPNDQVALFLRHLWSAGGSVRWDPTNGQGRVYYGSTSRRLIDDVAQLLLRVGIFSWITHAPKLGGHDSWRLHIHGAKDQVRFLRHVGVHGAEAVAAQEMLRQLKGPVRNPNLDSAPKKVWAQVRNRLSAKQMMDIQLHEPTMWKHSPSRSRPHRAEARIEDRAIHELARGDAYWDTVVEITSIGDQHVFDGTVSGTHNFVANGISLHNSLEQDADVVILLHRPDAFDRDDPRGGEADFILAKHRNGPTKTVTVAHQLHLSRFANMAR
# Cytochrome P450 3A4 = Cytochrome P450 3A4 (Homo sapiens, UniProt P08684);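 further: CYP3A4 tested as one member of a cytochrome P450 panel screen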
# Chain of Cytochrome P450 3A4 (P08684 whole entry): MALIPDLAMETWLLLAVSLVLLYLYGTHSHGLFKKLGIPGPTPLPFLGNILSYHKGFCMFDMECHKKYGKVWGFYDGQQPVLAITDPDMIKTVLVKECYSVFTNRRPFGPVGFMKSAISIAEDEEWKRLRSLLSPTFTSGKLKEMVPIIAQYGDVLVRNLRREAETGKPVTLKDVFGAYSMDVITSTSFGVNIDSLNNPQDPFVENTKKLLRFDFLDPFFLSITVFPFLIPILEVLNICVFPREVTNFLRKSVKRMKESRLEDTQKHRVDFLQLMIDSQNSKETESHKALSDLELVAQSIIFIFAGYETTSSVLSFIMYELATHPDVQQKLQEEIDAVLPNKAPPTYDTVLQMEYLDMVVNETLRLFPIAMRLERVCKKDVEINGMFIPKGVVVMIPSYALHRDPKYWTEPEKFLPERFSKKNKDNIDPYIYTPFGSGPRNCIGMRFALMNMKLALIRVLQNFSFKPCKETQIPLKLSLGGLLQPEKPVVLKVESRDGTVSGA
# Cytochrome P450 1A2 = target: T3, Cytochrome P450 1A2 (Homo sapiens, UniProt P05177);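 further: PubChem cytochrome P450 panel assay, CYP1A2 panel member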
# T3 sequence (P05177 whole entry): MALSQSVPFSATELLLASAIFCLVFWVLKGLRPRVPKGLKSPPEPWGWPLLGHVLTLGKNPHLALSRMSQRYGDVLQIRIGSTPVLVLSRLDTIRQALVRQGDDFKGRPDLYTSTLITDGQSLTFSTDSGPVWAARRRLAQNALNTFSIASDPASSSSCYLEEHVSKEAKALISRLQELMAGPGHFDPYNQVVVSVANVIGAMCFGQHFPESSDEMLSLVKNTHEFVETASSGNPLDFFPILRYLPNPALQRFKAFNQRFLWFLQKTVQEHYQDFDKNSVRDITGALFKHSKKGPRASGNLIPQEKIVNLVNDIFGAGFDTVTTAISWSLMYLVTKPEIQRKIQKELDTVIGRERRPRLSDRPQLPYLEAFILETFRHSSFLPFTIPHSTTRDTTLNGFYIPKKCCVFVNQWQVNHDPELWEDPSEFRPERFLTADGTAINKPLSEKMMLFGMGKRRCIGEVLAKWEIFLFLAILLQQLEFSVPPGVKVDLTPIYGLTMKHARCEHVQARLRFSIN
# [2] = Luminescence Cell-Based Dose Retest to Confirm Inhibitors of Cancer Stem Cells. [Related pubchem assays (depositor defined):AID2717, AID2721]; assay type: functional; conditions: Homo sapiens
# [3] = Luminescence Cell-Based Dose Response HTS to Identify Inhibitors of 5'UTR Stem-Loop Driven Prion Protein mRNA Translation in H4 Neuroglioblastoma Cells. [Related pubchem assays: 1827 (Project Summary), 1813 (Primary HTS)]; assay type: functional
# [4] = tested on: Streptococcus sp. 'group A'; assay: growth inhibition of control SK(-) GAS strain, dose response, counter-screen for streptokinase expression inhibitor project, luminescence, kanamycin, BacTiterGlo, confirmation (AID 1900); assay type: functional, organism-based
# Streptokinase A = target: T4, Streptokinase A (Streptococcus pyogenes serotype M1, UniProt P10520); assay: S. pyogenes streptokinase expression inhibitors, potency, dose response, plasminogen activation absorbance, OD405 (AID 1914); assay type: functional, Streptococcus pyogenes M1 GAS;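 further: secreted streptokinase activity via plasminogen activation per viability signal from cell pellet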
# T4 sequence (P10520 whole entry): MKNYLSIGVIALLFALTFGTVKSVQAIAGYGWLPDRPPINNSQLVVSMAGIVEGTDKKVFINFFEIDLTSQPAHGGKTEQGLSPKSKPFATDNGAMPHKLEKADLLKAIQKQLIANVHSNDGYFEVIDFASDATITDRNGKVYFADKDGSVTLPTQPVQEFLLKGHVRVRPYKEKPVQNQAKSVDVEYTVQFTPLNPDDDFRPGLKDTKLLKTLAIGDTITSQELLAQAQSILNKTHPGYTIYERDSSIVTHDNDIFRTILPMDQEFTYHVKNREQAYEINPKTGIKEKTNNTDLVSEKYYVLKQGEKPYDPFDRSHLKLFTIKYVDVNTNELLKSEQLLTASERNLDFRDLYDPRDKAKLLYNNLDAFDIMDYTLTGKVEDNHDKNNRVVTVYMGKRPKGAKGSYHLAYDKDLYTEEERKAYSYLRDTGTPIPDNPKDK
# [5] = inhibitors of firefly luciferase expression or activity, dose response, H4 neuroglioma cells, luminescence (AID 1990); assay type: functional, cell-based
# Streptococcus = assay: Group A Streptococcus viability loss, dose response, counter-screen for streptokinase expression inhibitor project, luminescence, BacTiterGlo (AID 1915); assay type: functional, organism-based;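 further: potency for reduction of bacterial viability or growth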
# [6] = inhibitors of SNCA 5'UTR-driven reporter translation, confirmation, H4 neuroglioma cells, luminescence (AID 1988); assay type: functional, cell-based
# Cytochrome P450 2C19 = Cytochrome P450 2C19 (Homo sapiens, UniProt P33261); assay: Cytochrome panel assay with activity outcomes. Panel member name: p450-cyp2c19 Compounds with AC50 equal or less than 10 uM are considered active; assay type: functional; conditions: read-out: AC50
# Chain of Cytochrome P450 2C19 (P33261 whole entry): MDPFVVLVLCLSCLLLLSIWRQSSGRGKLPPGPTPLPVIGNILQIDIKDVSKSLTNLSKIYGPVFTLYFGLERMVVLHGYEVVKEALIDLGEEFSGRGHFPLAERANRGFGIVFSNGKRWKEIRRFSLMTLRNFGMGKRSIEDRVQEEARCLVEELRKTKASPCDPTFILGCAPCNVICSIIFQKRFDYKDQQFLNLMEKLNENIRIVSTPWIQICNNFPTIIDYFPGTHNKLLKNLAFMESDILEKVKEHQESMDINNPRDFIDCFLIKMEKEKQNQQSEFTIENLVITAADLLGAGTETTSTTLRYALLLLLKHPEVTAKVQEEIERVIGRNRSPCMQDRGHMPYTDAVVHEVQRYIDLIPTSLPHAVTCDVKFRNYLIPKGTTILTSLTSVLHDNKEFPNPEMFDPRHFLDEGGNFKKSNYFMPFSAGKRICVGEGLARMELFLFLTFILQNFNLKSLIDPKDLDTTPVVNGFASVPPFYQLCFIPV
# Cytochrome P450 2C9 = Cytochrome P450 2C9 (Homo sapiens, UniProt P11712)
# Chain of Cytochrome P450 2C9 (P11712 whole entry): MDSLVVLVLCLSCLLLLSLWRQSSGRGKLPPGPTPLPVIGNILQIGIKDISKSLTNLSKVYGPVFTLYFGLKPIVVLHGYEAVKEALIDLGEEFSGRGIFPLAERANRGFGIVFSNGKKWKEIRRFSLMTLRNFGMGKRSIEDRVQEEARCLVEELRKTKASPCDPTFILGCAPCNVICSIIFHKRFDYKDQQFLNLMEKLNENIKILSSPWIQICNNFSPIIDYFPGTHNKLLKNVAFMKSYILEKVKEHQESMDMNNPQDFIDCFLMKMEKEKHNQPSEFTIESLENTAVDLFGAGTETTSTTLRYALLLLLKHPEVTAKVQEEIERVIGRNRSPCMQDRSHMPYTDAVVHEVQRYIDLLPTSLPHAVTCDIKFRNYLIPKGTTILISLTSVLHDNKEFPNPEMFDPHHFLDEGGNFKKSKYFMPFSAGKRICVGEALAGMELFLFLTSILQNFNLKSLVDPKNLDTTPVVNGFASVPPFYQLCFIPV
# Chain of Cytochrome P450 2D6 (P10635 whole entry): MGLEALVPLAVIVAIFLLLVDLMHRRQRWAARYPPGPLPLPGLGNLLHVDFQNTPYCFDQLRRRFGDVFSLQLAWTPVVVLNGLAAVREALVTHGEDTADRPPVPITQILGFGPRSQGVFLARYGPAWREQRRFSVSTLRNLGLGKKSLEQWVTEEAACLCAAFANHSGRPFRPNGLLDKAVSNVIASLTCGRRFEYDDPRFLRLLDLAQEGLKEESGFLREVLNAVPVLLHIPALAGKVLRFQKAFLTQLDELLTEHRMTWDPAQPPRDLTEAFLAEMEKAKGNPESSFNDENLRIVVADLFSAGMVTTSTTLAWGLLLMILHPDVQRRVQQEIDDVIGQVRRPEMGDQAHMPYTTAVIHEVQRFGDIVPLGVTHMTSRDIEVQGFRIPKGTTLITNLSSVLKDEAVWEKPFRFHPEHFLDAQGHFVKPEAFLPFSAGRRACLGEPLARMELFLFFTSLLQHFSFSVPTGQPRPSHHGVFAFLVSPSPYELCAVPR
smiles,measurement,setting,value
CCCc1n[nH]c2c1C(c1ccncc1)C(C#N)=C(N)O2 (centres undefined),AC50,Cytochrome P450 2D6,25.1 µM (inconclusive)
same,EC50,Protein RecA,17.6 µM (active)
same,AC50,[1],45.8 µM (active)
same,AC50,Cytochrome P450 3A4,39.8 µM (inconclusive)
same,AC50,Cytochrome P450 1A2,25.1 µM (inconclusive)
Cc1ccc(CNc2nc(-c3cccs3)nc3ccccc23)cc1,AC50,[2],7 µM (active)
CCCc1nc(NCc2ccccc2)c(C#N)c2c1CCCC2,EC50,[3],> 120 µM (not active)
same,EC50,[4],14.9 µM (active)
same,EC50,Streptokinase A,3.06 µM (active)
same,EC50,[5],> 120 µM (not active)
same,EC50,Streptococcus,18.5 µM (active)
same,EC50,[6],> 120 µM (not active)
Cc1ccc(-c2cc([C@H]3[C@@H]4C=CCC[C@@]4(C)C(=O)N3Cc3ccccc3)ccc2F)cc1,EC50,[4],5.4 µM (active)
same,EC50,Streptokinase A,4.92 µM (active)
same,AC50,[2],3.16 µM (active)
same,EC50,Streptococcus,18 µM (active)
CCC/C=C(\CCC)C(NP(=O)(c1ccccc1)c1ccccc1)c1ccccc1 (centres undefined),AC50,Cytochrome P450 2D6,39.8 µM (inconclusive)
same,AC50,Cytochrome P450 2C19,20 µM (inconclusive)
same,AC50,Cytochrome P450 2C9,25.1 µM (inconclusive)
same,AC50,Cytochrome P450 1A2,15.8 µM (inconclusive)
O=C(Cc1ccc(-n2c(=O)[nH]c3ccccc3c2=O)cc1)N1CCN(c2cccc(Cl)c2)CC1,EC50,[3],25.3 µM (active)
same,EC50,[5],23 µM (active)
same,AC50,Cytochrome P450 2D6,14.1 µM (inconclusive)
same,AC50,Cytochrome P450 1A2,17.8 µM (inconclusive)
same,EC50,[6],> 120 µM (not active)
NCCCCCc1nnc(SCc2ccccc2Cl)o1,EC50,[3],15.7 µM (active)
same,EC50,[5],14.7 µM (active)
same,AC50,Cytochrome P450 2C9,25.1 µM (inconclusive)
same,AC50,Cytochrome P450 1A2,28.2 µM (inconclusive)
same,EC50,[6],12.8 µM (active)
CN1C(=O)/C(=C/c2cccc(Cl)c2)Sc2ccc(C(=O)NCc3cccnc3)cc21,AC50,[2],1.63 µM (active)
CCN(CC)CCC(=O)Nc1ccc2c(c1)N(C(=O)CN(CC)CC)c1ccccc1CC2,AC50,Cytochrome P450 2D6,15.8 µM (inconclusive)
c1cc(NC2CC2)nc(-c2ccoc2)n1,AC50,Cytochrome P450 2D6,39.8 µM (inconclusive)
C/C(CCN1CCCCc2nc(C)c(C)cc21)=N\O[C@@H](C)c1cc(-c2c(C)cc(C)cc2C)no1,AC50,Cytochrome P450 2D6,3.16 µM (inconclusive)
